In one series the test system is HEK-293T cells. Put plainly: Lentiviral transduction enhancement in HEK-293T cells (GFP+ cells by flow cytometry). The series is classed as cell-based, human. The settings on record: for transduction enhancing activity: K18-derived peptides at 1 µM compared with commercial TE, MOI = 1 (Figure 3). The procedure:
(§1) To carry out the transduction enhancement assays, 3000 cells (HEK-293T or NIH/3T3, both purchased at the ATCC) were seeded in 100 µL of culture medium (consisting of Dulbecco's Modified Eagle Medium (high glucose) (DMEM, Gibco™), supplemented with 10% fetal bovine serum (FBS), 1% L-glutamine and 1% penicillin/streptomycin (P/S) (both from Cultek S.L.U.), per well, in culture-treated flat-bottomed 96-well plates, and incubated for 24 h at 37° with 5% CO2 and 100% relative humidity.
The vector was diluted in complete medium, and the appropriate amounts were added to each well at the chosen MOI into a final volume of 200 µL per well, in the absence or presence of the chosen TE (peptides, LB, VF-1, PS, RN, PGE2) at different concentrations and following the manufacturer's recommendations. The culture medium was changed 24 h after transduction and the cells were incubated for 48 h more until the plate was analyzed 3 days post-transduction by flow cytometry.
All experiments included a non-transduced control (cells only) without vector exposure, and a control with vectors but without TE (basal transduction). In all assays, a minimum of three replicates (technical replicates) were performed per experimental condition, and were repeated a minimum of three times (experimental replicates) for statistical analysis.
Transduction efficiency was analyzed using an LSR Fortessa cell analyzer (Becton, Dickinson, New Jersey, USA), after 3, 7 or 14 days post-transduction (depending on the target cell type). First, cells were transferred using a multichannel pipette to a U-bottom 96-well plate. Live and dead cells were dis-criminated using 1 µg/mL 7-amino-actinomycin D (7-AAD).
To analyze the transduction efficacy and cytotoxicity of the compounds used, different gates of analysis were defined. Samples of transduced cells (labeled and unlabeled with PI or 7-AAD), with a minimum of 10.000 events in the relevant gate, were acquired. Further, appropriate thresholds were established to define the cell populations. Four final gates were created and applied sequentially: • Gate 1. Plotting forward scatter high or FSC-H (Forward scatter height) versus forward scatter area or FSC-A (Forward scatter area). Here single events were gated to eliminate doublets. • Gate 2. Plotting the Side scatter area (SSC-A) against the Forward scatter area (FSC-A). This gate was used to eliminate cellular debris and atypical and undesired events, taking into account their morphology and complexity. • Gate 3. Thanks to the labeling of the cells with PI or 7-AAD it was possible to calculate the percentage of dead cells and eliminate them from the study. Only live cells were considered for the subsequent analysis gate. • Gate 4. The percentage of live transduced cells was obtained using eGFP fluorescence (FL1). As an additional parameter, the Mean Fluorescence Intensity (MFI) of the transduced cells was measured. The MFI is the mean of all fluorescence intensities of individual cells (or events) in a desired population. In our case, the MFI values obtained represented the mean fluorescence level of eGFP in the transduced cells (gate 4). All data were obtained and analyzed using FACSDiva software v6.2 and FlowJo v10 software (both from BD Biosciences).
(In general: A flow cytometer gives signals particle by particle.)

The test system of another series is CD34^+ cells. Put plainly: Lentiviral transduction enhancement in CD34+ hematopoietic cells (flow cytometry). The series is classed as cell-based, human. The following applies: peptides at 3 µM, LB 5 mg/mL; MOI = 1; days 3, 7 and 14 after transduction; only K18-8R and LentiBoost statistically significant vs basal transduction (Figure 4). The procedure: • 1. The CD34^+ cells were isolated from apheresis products from healthy donors and cryopreserved in liquid nitrogen until use. Cells were then thawed, counted with trypan blue, and seeded in culture-treated 96-well flat-bottom plates, about 50.000 cells per well in 100 µL of complete StemSpan™ SFEM Hematopoietic Cell Culture Medium (SFEM medium) (Stem Cell Technologies™, Vancouver, Canada), and incubated at 37°C, 5% CO2 and 100% relative humidity. The complete medium was supplemented with recombinant human stem cell factor (rhSCF), recombinant human flt3 ligand (rhFlt3-L) and recombinant human thrombopoietin (rhTpo) (all from EuroBioScience, Friesoythe, Germany). • 2. After 24 h in culture, the cells were transduced as follow: Previously, the required volume of lentiviral vector was calculated in accordance with the vector titer, the CD34^+ target cell number and the desired MOI. Prior to its use, the vector was diluted in complete SFEM medium. • 3. […] Finally, at 3, 7 and 14 days post-transduction, the cells were analyzed by flow cytometry and the plates were stored at -80° for future analyses.
(§2) Transduction efficiency was analyzed using an LSR Fortessa cell analyzer (Becton, Dickinson, New Jersey, USA), after 3, 7 or 14 days post-transduction (depending on the target cell type). […]

The subject of another series is NIH/3T3 cells. In words: Lentiviral transduction enhancement in NIH/3T3 cells (GFP+ cells and living cells by flow cytometry). The series is classed as cell-based, murine. The settings on record: micellar peptide at 1 µM; MOI = 1; GFP+ cells 72 h after vector exposure; compared with other TEs (Figure 1). The procedure: as §1
The vector was diluted in complete medium, and the appropriate amounts were added to each well at the chosen MOI into a final volume of 200 µL per well, in the absence or presence of the chosen TE (peptides, LB, VF-1, PS, RN, PGE2) at different concentrations and following the manufacturer's recommendations. The culture medium was changed 24 h after transduction and the cells were incubated for 48 h more until the plate was analyzed 3 days post-transduction by flow cytometry. […]
as §2
To analyze the transduction efficacy and cytotoxicity of the compounds used, different gates of analysis were defined. […] The percentage of live transduced cells was obtained using eGFP fluorescence (FL1). […]

Another series has as its system NK cells. Put plainly: Lentiviral transduction enhancement in primary NK cells (flow cytometry). In kind it is cell-based, human. The following applies: MOI = 5; for fold changes: fold change relative to basal transduction, 1.5 µM. The procedure:
• 1. Total blood samples were collected and processed in less than 4 h. After obtaining the peripheral blood mononuclear cells (PBMCs) by density gradient centrifugation (Ficoll), NK cells (following the instructions of the Miltenyi Biotec isolation kit) from human they were seeded in a 24-well plate [10^6 cells per well in 1 mL of complete medium (NK MACS supplemented with 5% AB serum (Tebu-Bio, Le Perray, France), recombinant human IL-2 (rhIL-2) and recombinant human IL-15 (rhIL-15), both from Miltenyi Biotec)], and incubated at 37°C, 5% CO2, and 100% relative humidity. • 2. After 48 h in culture, cells were counted, and about 40,000 cells were seeded in 100 µL of complete medium (per well) in culture-treated 96-well flat-bottom plate. The transduction process was performed as follows: • 3. Calculate the required volume of lentiviral vector for a known number of NK cells and desired MOI, and the vector diluted in complete medium. Simultaneously, prepare all the enhancers to be used in the assay (micellar peptides, LB, PS, VF-1, etc.) at the concentrations recommended by the manufacturers. […] At days 3, 7 and 14 post-transduction, the cells were analyzed by flow cytometry.
as §2
To analyze the transduction efficacy and cytotoxicity of the compounds used, different gates of analysis were defined. […] The percentage of live transduced cells was obtained using eGFP fluorescence (FL1). As an additional parameter, the Mean Fluorescence Intensity (MFI) of the transduced cells was measured. The MFI is the mean of all fluorescence intensities of individual cells (or events) in a desired population. In our case, the MFI values obtained represented the mean fluorescence level of eGFP in the transduced cells (gate 4). All data were obtained and analyzed using FACSDiva software v6.2 and FlowJo v10 software (both from BD Biosciences).

A further series in a line: Antimicrobial activity. In kind it is cell-based. The settings on record: concentrations higher than 10-15 µM; dose-dependent.
The conditions of series [1]: concentrations higher than 10-15 µM; dose-dependent. The procedure: Studies with the fluorochrome Yo-Pro-1 were performed at the laboratory of Dr. Pablo Pelegrin, at the University of Murcia.
For the next series, the system named is CD4^+ T cells. Put plainly: Lentiviral (anti-CD19 CAR) transduction enhancement in CD4+ T cells (flow cytometry). In kind it is cell-based, human. The following applies: 72 h after transduction; differences between the four compounds not statistically significant (Figure 6). The procedure: • 1. After isolation and activation of the CD4^+ T cells, a suspension of 10^6 cells/mL was prepared and 100 µL were added per well to a 96-well flat-bottom plate and incubated at 37°C, 5% CO2, and 100% relative humidity. After 24 h in culture, the vector was diluted to the desired concentration and mixed with the different TEs (peptides, LB, VF-1, PS, PGE2), and 50 µL per well of the vector-TEs solution was added. The A3B1:CD8:4-1BB:CD3ζ (also named ARI001-CodonOptimized3 vector), a third generation lentiviral vector encoding an anti-human CD19 CAR, was used for this assay. • 2. After 72 h post-transduction, samples were collected and stained for flow cytometry analysis: First, the entire plate contents were transferred to a pre-labeled 96-well roundbottom plate. Two washes were performed with 1X PBS, adding 100 µL per well and centrifuging the plate for 2' at 2000 rpm. In the last wash, the supernatant was discarded, and 100 µL of a working solution of eFluor™ 450 - Fixable Viability Dye Live/Dead (eBioscience™) was added and incubated for 30' at RT. • 3. Two washes were performed with 200 µL of FACS buffer (PBS 1X + 3% FBS). […] Finally, transduction efficiency was analyzed by flow cytometry to determine the percentage of CAR-positive T cells.

In the case of “LLNIKVKLEAEIATYRRLLE (poloxamer F-127 micelles) [K18, conjugated to poloxamer F-127 polymeric micelles]”, the transduction enhancing activity entry in the series on HEK-293T cells is recorded as “highest activity”.
Regarding “LLNKEIKIEVALARRRRRRRR (polymeric micelles) [Sc-K18-8R, conjugated to polymeric micelles, reference compound]”, in the series on CD34^+ cells, the “enhancing efficacy (transduction efficiencies by flow cytometry)” value was “significant enhancing activity”.
In the case of “LLNIKVKLEAEIRRRRRRRR (poloxamer F-127 micelles) [K18-8R, first 12 amino acids of K18 plus an 8R tail; conjugated to poloxamer F-127 polymeric micelles]”, the transduction enhancing activity entry in the series on NIH/3T3 cells is reported as “highest transduction enhancing activity”; in the series with HEK-293T cells it was “highest activity”. The “enhancing efficacy (transduction efficiencies by flow cytometry)” value in the series with CD34^+ cells was “highest enhancing efficacy”. Besides, the results for the fold changes in the series on NK cells (day 3) and in the series on NK cells (day 14) were 2.2 and 3.5, respectively. Besides, the enhancing activity result in the series on NK cells (peptides at 1.5 µM, compared with scrambled control, micelle alone and LB (Figure 7)) is recorded as “highest enhancing activity”. The antimicrobial activity result in the series “Antimicrobial activity” is “predominated”. The cytotoxic activity entry in series [1] is given as “predominated”. The hemolytic activity result in series [1] is “predominated”. In the series with HEK-293T cells (5 µM or more, MOI 1 and 5, perhaps due to toxicity (Figure 2)), the “transduction enhancing activity at higher concentrations” value is given as “decreased”. Besides, the transduction enhancement entry with HEK-293T cells (peptide at 1 µM, MOI 1 and 5, experiment made only once (Figure 2)) was “highest transduction enhancement”. For the same sequence, the transduction efficiency entry with CD4^+ T cells is listed as “highest transduction efficiency”.
On to LLNVKMALDIEIRRRRRRRR [DIF-P-8R], for which the enhancing activity entry in the series with HEK-293T cells (several concentrations, MOI 1 and 5, experiment made only once (Figure 2)) is listed as “enhancing activity, that was higher at 5-15 µM than at 1 µM”.

The values are drawn from patent publication EP4656207A1, “IN VITRO METHOD FOR T[…] TARGET CELL” (Fundació Hospital Universitari Vall Hebron - Institut de …, priority 2024, dated 2025).
